Measured values reported in patent US9777003B2, “Tricyclic heterocycles as bet protein inhibitors” (Incyte Corporation, priority 2013, dated 2017).
Where a name gives a salt, the structure may show the parent alone.

How the values were obtained:
BRD4-BD1 = BRD4-BD1 (Homo sapiens (Human), UniProt O60885); experiment: BRD4 AlphaScreen assay, BRD4-BD1; type: binding; conditions: biotin-labeled tetra-acetylated histone H4 peptide, 75 min, room temperature, read-out: BRD4 BD-1 enzyme IC50
Procedure: (§1) BRD4-BD1 and BRD4-BD2 assays were conducted in white 384-well polystyrene plate in a final volume of 20 μL for BD1 and 40 μL for BD2. Inhibitors were first serially diluted in DMSO and added to the plate wells before the addition of other reaction components. The final concentration of DMSO in the assay was 1.25% (BD1) and 0.83% (BD2). The assays were carried out at room temperature for 75 min. in the assay buffer (50 mM HEPES, pH 7.4, 100 mM NaCl, 0.05% CHAPS, 0.01% BSA), containing 50 nM Biotin-labeled tetra-acetylated histone H4 peptide (H4Ac4), 3.8 nM (BRD4-BD1, BPS Bioscience #31040) or 20 nM (BRD4-BD2, BPS Bioscience #31041). The reaction followed by the addition of 20 μL of assay buffer supplemented with Streptavidin donor beads (PerkinElmer 6760002) and GSH Acceptor beads (PerkinElmer-AL109C) at 4 μg/mL under reduced light. After plate sealing, the plate was incubated in the dark at room temperature for 75 min. before reading on a PHERAstar FS plate reader (BMG Labtech). IC50 determination was performed by fitting the curve of percent control activity versus the log of the inhibitor concentration using the GraphPad Prism 5.0 software.

BRD4-BD2 = BRD4-BD2 (Homo sapiens (Human), UniProt O60885); experiment: BRD4 AlphaScreen assay, BRD4-BD2; type: binding; conditions: biotin-labeled tetra-acetylated histone H4 peptide, 75 min, room temperature, read-out: BRD4 BD-2 enzyme IC50
Procedure: as §1

Compound | IC50 (BRD4-BD1) [nM] | IC50 (BRD4-BD2) [nM]
Cc1cc2c(ccc3nnc(C)n32)n1Cc1ccc2ccccc2n1 [Example 21, 1,7-dimethyl-6-(quinolin-2-ylmethyl)-6H-pyrrolo[2,3-e][1,2,4]triazolo[4,3-a]pyridine] | 100 to 1000 | ≤ 100
COc1cccc(Cn2c(C)cc3c2ccc2nnc(C)n23)c1 [Example 22, 6-(3-methoxybenzyl)-1,7-dimethyl-6H-pyrrolo[2,3-e][1,2,4]triazolo[4,3-a]pyridine] | 100 to 1000 | ≤ 100
Cc1cc2c(ccc3nnc(C)n32)n1Cc1cccc(O)c1 [Example 23, 3-[(1,7-dimethyl-6H-pyrrolo[2,3-e][1,2,4]triazolo[4,3-a]pyridin-6-yl)methyl]phenol] | ≤ 100 | ≤ 100
CC(=O)Nc1cccc(Cn2c(C)cc3c2ccc2nnc(C)n23)c1 [Example 25, N-{3-[(1,7-dimethyl-6H-pyrrolo[2,3-e][1,2,4]triazolo[4,3-a]pyridin-6-yl)methyl]phenyl}acetamide Trifluoroacetate Salt] | 100 to 1000 | ≤ 100
Cc1cc2c(ccc3nnc(C)n32)n1Cc1cccc(CO)c1 [Example 26, {3-[(1,7-dimethyl-6H-pyrrolo[2,3-e][1,2,4]triazolo[4,3-a]pyridin-6-yl)methyl]phenyl}methanol Trifluoroacetate Salt] | ≤ 100 | ≤ 100
Cc1cc2c(ccc3nnc(C)n32)n1Cc1cccc(CN2CC(O)C2)c1 [Example 27, 1-(3-((1,7-dimethyl-6H-pyrrolo[2,3-e][1,2,4]triazolo[4,3-a]pyridin-6-yl)methyl)benzyl)azetidin-3-ol bis-trifluoroacetate Salt] | ≤ 100 | ≤ 100
Cc1cc2c(ccc3nnc(C)n32)n1Cc1cccc(CN2CCC2)c1 [Example 28, 6-[3-(azetidin-1-ylmethyl)benzyl]-1,7-dimethyl-6H-pyrrolo[2,3-e][1,2,4]triazolo[4,3-a]pyridine] | ≤ 100 | ≤ 100
Cc1cc2c(ccc3nnc(C)n32)n1Cc1cccc(C(N)=O)c1 [Example 30, 3-((1,7-dimethyl-6H-pyrrolo[2,3-e][1,2,4]triazolo[4,3-a]pyridin-6-yl)methyl)benzamide Trifluoroacetate Salt] | 100 to 1000 | ≤ 100
Cc1cc2c(ccc3nnc(C)n32)n1Cc1cccc(C(=O)NO)c1 [Example 31, 3-[(1,7-dimethyl-6H-pyrrolo[2,3-e][1,2,4]triazolo[4,3-a]pyridin-6-yl)methyl]-N-hydroxybenzamide Trifluoroacetate Salt] | 100 to 1000 | ≤ 100
CNC(=O)c1cccc(Cn2c(C)cc3c2ccc2nnc(C)n23)c1 [Example 32, 3-[(1,7-dimethyl-6H-pyrrolo[2,3-e][1,2,4]triazolo[4,3-a]pyridin-6-yl)methyl]-N-methylbenzamide Trifluoroacetate Salt] | 100 to 1000 | ≤ 100
CCNC(=O)c1cccc(Cn2c(C)cc3c2ccc2nnc(C)n23)c1 [Example 33, 3-[(1,7-dimethyl-6H-pyrrolo[2,3-e][1,2,4]triazolo[4,3-a]pyridin-6-yl)methyl]-N-ethylbenzamide Trifluoroacetate Salt] | 100 to 1000 | ≤ 100
COc1ccc(Cn2c(C)cc3c2ccc2nnc(C)n23)cc1 [Example 34, 6-(4-methoxybenzyl)-1,7-dimethyl-6H-pyrrolo[2,3-e][1,2,4]triazolo[4,3-a]pyridine] | ≤ 100 | ≤ 100
Cc1cc2c(ccc3nnc(C)n32)n1Cc1ccc(O)cc1 [Example 35, 4-[(1,7-dimethyl-6H-pyrrolo[2,3-e][1,2,4]triazolo[4,3-a]pyridin-6-yl)methyl]phenol] | ≤ 100 | ≤ 100
Cc1cc2c(ccc3nnc(C)n32)n1Cc1cccc(CNCCO)c1 [Example 36, 2-({3-[(1,7-dimethyl-6H-pyrrolo[2,3-e][1,2,4]triazolo[4,3-a]pyridin-6-yl)methyl]benzyl}amino)ethanol] | ≤ 100 | ≤ 100
Cc1cc2c(ccc3nnc(C)n32)n1Cc1cccc(CN(C)CCO)c1 [Example 37, 2-[{3-[(1,7-dimethyl-6H-pyrrolo[2,3-e][1,2,4]triazolo[4,3-a]pyridin-6-yl)methyl]benzyl}(methyl)amino]ethanol] | 100 to 1000 | ≤ 100
Cc1cc2c(ccc3nnc(C)n32)n1Cc1cccc(CN2CCOCC2)c1 [Example 38, 1,7-dimethyl-6-[3-(morpholin-4-ylmethyl)benzyl]-6H-pyrrolo[2,3-e][1,2,4]triazolo[4,3-a]pyridine] | 100 to 1000 | ≤ 100
Cc1cc2c(ccc3nnc(C)n32)n1Cc1cccc(CN[C@H]2C[C@H](O)C2)c1 [Example 39, (1r,3r)-3-((3-((1,7-dimethyl-6H-pyrrolo[2,3-e][1,2,4]triazolo[4,3-a]pyridin-6-yl)methyl)benzyl)amino)cyclobutanol] | 100 to 1000 | ≤ 100
Cc1cc2c(ccc3nnc(C)n32)n1Cc1cccc(CN(C)C)c1 [Example 40, 1-{3-[(1,7-dimethyl-6H-pyrrolo[2,3-e][1,2,4]triazolo[4,3-a]pyridin-6-yl)methyl]phenyl}-N,N-dimethylmethanamine] | ≤ 100 | ≤ 100
CNCc1cccc(Cn2c(C)cc3c2ccc2nnc(C)n23)c1 [Example 41, 1-{3-[(1,7-dimethyl-6H-pyrrolo[2,3-e][1,2,4]triazolo[4,3-a]pyridin-6-yl)methyl]phenyl}-N-methylmethanamine] | ≤ 100 | ≤ 100

Continued, values first:

IC50 (BRD4-BD1) [nM] | IC50 (BRD4-BD2) [nM] | Compound
≤ 100 | ≤ 100 | CCNCc1cccc(Cn2c(C)cc3c2ccc2nnc(C)n23)c1 [Example 42, N-{3-[(1,7-dimethyl-6H-pyrrolo[2,3-e][1,2,4]triazolo[4,3-a]pyridin-6-yl)methyl]benzyl}ethanamine]
100 to 1000 | ≤ 100 | CCNC(=O)Nc1cccc(Cn2c(C)cc3c2ccc2nnc(C)n23)c1 [Example 43, N-{3-[(1,7-dimethyl-6H-pyrrolo[2,3-e][1,2,4]triazolo[4,3-a]pyridin-6-yl)methyl]phenyl}-N′-ethylurea Trifluoroacetate Salt]
100 to 1000 | ≤ 100 | Cc1cc2c(ccc3nnc(C)n32)n1Cc1cccc(NC(N)=O)c1 [Example 44, N-{3-[(1,7-dimethyl-6H-pyrrolo[2,3-e][1,2,4]triazolo[4,3-a]pyridin-6-yl)methyl]phenyl}urea]
≤ 100 | ≤ 100 | Cc1cc2c(ccc3nnc(C)n32)n1Cc1cccc(CN2CCCC2)c1 [Example 45, 1,7-dimethyl-6-[3-(pyrrolidin-1-ylmethyl)benzyl]-6H-pyrrolo[2,3-e][1,2,4]triazolo[4,3-a]pyridine]
≤ 100 | ≤ 100 | Cc1cc2c(ccc3nnc(C)n32)n1Cc1cccc(CN2CCCCC2)c1 [Example 46, 1,7-dimethyl-6-[3-(piperidin-1-ylmethyl)benzyl]-6H-pyrrolo[2,3-e][1,2,4]triazolo[4,3-a]pyridine]
100 to 1000 | ≤ 100 | Cc1cc2c(ccc3nnc(C)n32)n1Cc1cccc(CN2CCN(C)CC2)c1 [Example 47, 1,7-dimethyl-6-{3-[(4-methylpiperazin-1-yl)methyl]benzyl}-6H-pyrrolo[2,3-e][1,2,4]triazolo[4,3-a]pyridine]
100 to 1000 | ≤ 100 | Cc1cc2c(ccc3nnc(C)n32)n1Cc1cccc(CN2CCNCC2)c1 [Example 48, 1,7-dimethyl-6-[3-(piperazin-1-ylmethyl)benzyl]-6H-pyrrolo[2,3-e][1,2,4]triazolo[4,3-a]pyridine]
100 to 1000 | ≤ 100 | Cc1cc2c(ccc3nnc(C)n32)n1Cc1ccc(CO)cc1 [Example 49, {4-[(1,7-dimethyl-6H-pyrrolo[2,3-e][1,2,4]triazolo[4,3-a]pyridin-6-yl)methyl]phenyl}methanol]
≤ 100 | ≤ 100 | Cc1cc2c(ccc3nnc(C)n32)n1Cc1ccc(CN2CCC2)cc1 [Example 50, 6-[4-(azetidin-1-ylmethyl)benzyl]-1,7-dimethyl-6H-pyrrolo[2,3-e][1,2,4]triazolo[4,3-a]pyridine]
100 to 1000 | 100 to 1000 | Cc1cc2c(ccc3nnc(C)n32)n1Cc1ccc(CN2CCCC2)cc1 [Example 51, 1,7-dimethyl-6-[4-(pyrrolidin-1-ylmethyl)benzyl]-6H-pyrrolo[2,3-e][1,2,4]triazolo[4,3-a]pyridine]
100 to 1000 | 100 to 1000 | Cc1cc2c(ccc3nnc(C)n32)n1Cc1ccc(CN2CC(O)C2)cc1 [Example 52, 1-{4-[(1,7-dimethyl-6H-pyrrolo[2,3-e][1,2,4]triazolo[4,3-a]pyridin-6-yl)methyl]benzyl}azetidin-3-ol]
100 to 1000 | 100 to 1000 | Cc1cc2c(ccc3nnc(C)n32)n1Cc1ccc(CN(C)C)cc1 [Example 53, 1-{4-[(1,7-dimethyl-6H-pyrrolo[2,3-e][1,2,4]triazolo[4,3-a]pyridin-6-yl)methyl]phenyl}-N,N-dimethylmethanamine]
100 to 1000 | ≤ 100 | COC1CN(Cc2cccc(Cn3c(C)cc4c3ccc3nnc(C)n34)c2)C1 [Example 54, 6-{3-[(3-methoxyazetidin-1-yl)methyl]benzyl}-1,7-dimethyl-6H-pyrrolo[2,3-e][1,2,4]triazolo[4,3-a]pyridine]
